Reference: US20050180954A1, “Drug for treating bone disorders” (priority 1995, published 2005)

System: osteoclast like cells from bone marrow cells of mice of ddy strain
Assay: Formation of osteoclast like cells from bone marrow cells of mice of ddy strain
Type: cell-based, mouse
Method: Bone marrow cells were prepared in accordance with the method by Takahashi et al (Takahashi, N. et al., Endocrinology, 122, 1373, 1988). Male mice of ddy strain of 7 weeks old were exanguinated to death under ether anesthesia and the femur and the tibia of hind legs were collected from each mouse. The connective tissues on the surfaces of the bones were carefully removed, and both ends of each bone were cut off with scissors. The bone marrow cells were suspended in α-Minimum Essential Medium (α-MEM, Nissui Pharmaceuticals Co.) containing 10% pre-colostrum new born calf serum (Mitsubishi Chemical, hereinafter referred to as “JCS” for short) and the suspension was flushed out through a 25 G needle attached to a syringe to collect the suspension in a centrifugal tube. The collected suspension was washed by centrifugation in the same medium at 2000 rpm at 4° C. for 5 minutes. The precipitated cells were dispersed in the above-mentioned medium and the washing by centrifugation was repeated twice, thereby preparing bone marrow cells. Murine IFN-α (hereinafter referred to as “MuIFNα” for short), Lot. B13010, 106 units/ml/vial (Calbiochem-Novabiochem International, San Diego, Calif.), murine IFN-β (hereinafter referred to as “MuIFNβ” for short), Lot M-0034, 10 units/ml/vial (Toray Industries, Inc.) and murine IFNγ (hereinafter referred to as “MuIFNγ” for short), Lot 254F3, 2.06×10^6 units/ml (Genentech, Calif.) were respectively dissolved in 10% JCS-containing α-MEM (Nissui Pharmaceuticals Co.) to the desired concentrations. Active vitamin D3 ([…], Wako Pure Chemical Industries, Ltd., hereinafter referred to as “Vit D3” for short) was dissolved in argon-saturated ethanol, and the obtained solution was diluted so as to attain the final ethanol concentration of 0.1% in all of the culture systems.
The number of viable bone marrow cells was counted using tripam blue dye exclusion test and the bone marrow cells were diluted with α-MEM containing 10% JCS, 10^−8M Vit D3, 10^−7 M dexamethasone to a population density of 1.5×10^6 cells/ml, followed by placing the resulting suspension in each well in 24-well plates in an amount of 0.45 ml/well. To each well, 50 μl of the medium containing varying concentration of IFN was added to make the volume to 0.5 ml/well and culturing was begun. At every three days, 0.4 ml of the culture medium was removed from each well and 0.4 ml of fresh medium (the above-mentioned medium containing the respective concentration of IFN) was added. On Day 8 from the beginning of the culturing, the medium was removed and the cells were fixed with mixed solution of ethyl alcohol and diethyl ether (1:1) and the cells were stained with tartrate resistant acid phosphatase (TRAP), followed by counting TRAP positive multinuclear cells with a phase contrast microscope. […] The inhibition effect of IFNγ was stronger than that of IFNβ. That is, the inhibition concentration IC50 of IFNγ was not more than 0.1 units/ml, and that of IFNβ was 0.2 units/ml.
The effects of the three murine IFNs, that is, MuIFNβ, γ and α in terms of abilities to inhibit formation of osteoclast like cells from bone marrow cells in mice of ddy strain were compared. The test was carried out as in Example 1. All of the murine IFNs inhibited the formation of osteoclast like cells, and the effect was strong in the order of γ, β and α. […] Thus, the activity of IFNα to inhibit formation of osteoclasts was about 1/20 of that of IFNβ and about not more than 1/100 of that of IFNγ.

MuIFNβ: murine interferon β, Lot M-0034, prepared by Toray Industries, Inc. by genetic engineering technique
inhibition of formation of osteoclast like cells (Example 1, Day 8, TRAP positive multinuclear cells): strongly inhibited formation of osteoclast like cells
inhibition concentration IC50 of formation of osteoclast like cells (Example 1, Vit D3 + dexamethasone, Day 8, TRAP positive multinuclear cells): 0.2 units/ml
IC50 of inhibition of formation of osteoclast like cells (Example 8 comparison of three murine IFNs): about 0.9 units/ml
